These results are taken from US20200101056A1, “USE OF ROCK INHIBITORS FOR PROMOTING SINONASAL EPITHELIAL CELL REPAIR” (priority 2018, published 2020).

Common to all, as to type: cell-based, human
For one series, the system named is pNEC. Description: Pilot study of Y-27632 dose on epithelial repair in pNEC. The text has this: pNECs were injured mechanically (3 wounds/well, 3 wells/condition), using a well-established, highly reproducible technique^32,34,37. After wounding, the cultures were washed to remove detached cells, and then randomly treated in either of the following conditions (performed in triplicate): 1) negative control: 0.5% (v/v) of LB, 2) exposure to SA exoproducts, (at both concentrations of 0.25% and 0.5% (v/v) SA filtrate), and 3) exposure to SA exoproducts (both concentrations of 0.25% and 0.5% (v/v) SA filtrate) and the ROCK inhibitor Y-27632 dihydrochloride (5 μM, Sigma-Aldrich®).
A mark on wells allowed us to capture images of the wounds at exactly the same place at t=0 h and t=6 h using an inverted microscope with a 4× objective (Nikon Eclipse™ TE 2000). Images were registered using AxioVision™ 4.8 software (Carl Zeiss, Jena, Germany) and then analyzed with Image J software (NIH, Bethesda, Md., USA) to measure areas at t=0 h and t=6 h of wound healing and then to calculate the repair rates (expressed in μm^2/h).
The effect of a potent Rho kinase (ROCK) inhibitor, Y-27632, on epithelial repair in pNECs exposed to SA exoproducts was assessed. It was first determined, in a pilot study, that 5 μM was the optimal dose for Y-27632 in pNEC.

Series [1] deals with nasal epithelia from CRSwNP patients. Put plainly: Immunofluorescence of cytoskeleton and lamellipodial cell quantification at the wound edge, nasal epithelia from CRSwNP patients. The note with it: 4 h. The method, then: pNECs were grown to confluency on coverslips (precision cover glasses thickness No. 1.5H, Marienfeld, Lauda-Konigshofen, Germany) coated with Purecol™. After injury, (3 mechanical wounds/coverslip), cell monolayers were washed and then treated with either: 1) LB (concentration of 0.5% (v/v)): negative control, 2) SA exoproducts (concentration of 0.5% (v/v) SA filtrate) and 3) SA exoproducts (concentration of 0.5% (v/v) SA filtrate) and Y-27632 (5 μM). After 4 h of repair, cell monolayers were fixed with 4% paraformaldehyde in PBS for 5 min, permeabilized with 0.1% Triton™ X-100 in PBS for 10 min. After blocking (in 1% BSA in PBS for at least 1h at 4° C.), fixed cells were incubated with the primary anti-β-tubulin antibody (1:1000 in PBS+BSA1%, Millipore, Etobicoke, Canada) for 1 h at room temperature, and then with Alexa Fluor®-488 conjugated goat anti-mouse antibody secondary antibody (1:2000 in PBS+BSA1%,1 h, room temperature Thermo Fischer Scientific, Waltham, USA). F-actin was stained with Phalloidin-Alexa Fluor® 594 (1 unit, Thermo Fischer Scientific) (in PBS+BSA1%, for 1 h at room temperature) and nuclei with DAPI (1:1000 in PBS+BSA1%, for 5 min). Coverslips were mounted with ProLong® Gold Antifade Reagent (Molecular Probes, Eugene, USA) on SuperFrost™ glass slides (Thermo Fisher Scientific). Images were acquired with an inverted confocal microscope (TCS SP5, Leica Microsystems, Wetzlar, Germany) using an oil-immersion objective 63×/1.4. On immunofluorescence images, cells at the wound edge were classified according to the categories “with” or “without” lamellipodia as well as “ambiguous morphology” (see FIG. 10)^39. Percentages of cells in each category were then calculated.

The test system of series [2] is pNECs from CRSwNP patients. Description: Analysis of lamellipodial dynamics by kymograph, pNECs from CRSwNP patients. The note with it: SA 0.5% + Y-27632 5 μM, 0-2 h and 2-4 h, CRSwNP pNECs (FIG. 6). The protocol:
Brightfield time-lapse series were made on pNECs from patients with CRSwNP and control subjects plated in 2-well silicone culture inserts (Ibidi #80209, Fitchburg, USA) using an inverted Axio ObserverZ1 microscope equipped with a CoolSNAP™ EZ CCD camera and a 10×/0.3 NA air objective lens, and then analyzed by AxioVision™ software.
Immediately prior to image acquisition, cells were treated with LB (control condition for SA) or LB+water (control condition for SA+Y-27632). Cells were then positioned into the incubation chamber (37° C., 5% CO2) and images were captured every minute for 2 h to observe cell protrusions and retractions. Then, cells were treated with either SA exoproducts (concentration of 0.5% (v/v)) or a mix of SA (concentration of 0.5% v/v) and Y-27632 (5 μM), with the recording pursued during the following 4 h.
A one pixel-wide line crossing the cell membrane perpendicularly to the lamellipodia was drawn, and this region was extracted from each image of the time-lapse series, as previously described by Choi et al.^38. […] Data derived from these segmented lines were generated using “read velocity tsp macro” of ImageJ and used to calculate the length and velocity of each protrusion. At least a total of 40-110 individual protrusion events per condition and at least 14 different cells were analyzed in 3 independent time-lapse series.

The subject of series [3] is pNECs monolayers from CRSwNP patients. Description: Wound healing assay (epithelial repair rate) of injured pNECs monolayers from CRSwNP patients. Particulars: 6 h. The protocol:
diagnosis was performed according to the 2004 AAO-HNS guidelines^31, and patients underwent ESS following failure of medical treatment. Control patients underwent ESS for cerebral spinal fluid leak or non-secreting pituitary adenomas. Exclusion criteria for both groups comprised immune deficiencies, neoplasia, ciliary dyskinesia, cystic fibrosis, and systemic immunosuppression. Tissues obtained during surgery at the level of anterior ethmoidal bulla (control) or the polyp itself ([…]) were immediately collected for subsequent cell isolation and culture. After recovery, pNECs were isolated following a standardized procedure^32-35. […] After 18 h, Fetal Bovine Serum was added to the solution to neutralize the protease-DNase activity, and pNECs were gently scraped off the remaining tissue. […] Images were registered using AxioVisionTM 4.8 software (Carl Zeiss, Jena, Germany) and then analyzed with Image J software (NIH, Bethesda, Md., USA) to measure areas at t=0 h and t=6 h of wound healing and then to calculate the repair rates (expressed in μm^2/h).

Setting [4] is: CRSwNP, SA 0.5% + vehicle (SA) or SA 0.5% + Y-27632 5 μM (SA+Y) (FIG. 7B).

As to `C[C@@H](N)[C@H]1CC[C@H](C(=O)Nc2ccncc2)CC1` [Y-27632], the “increase in epithelial repair rate” value in the series with pNEC (5 μM, in LB condition) was 23%. The “effect of increasing concentrations on pNECs” value with pNEC (concentrations above 5 μM) was “altered migration and induced pNECs apoptosis”. Besides, the “optimal dose in pNEC” value in the series with pNEC (pilot study) was 5 μM. Besides, in series [1] (setting [4]), the cells with lamellipodia amounted to 65% and the cells without lamellipodia was 8%. Also, the “lamellipodial extensions at the leading edge (cytoskeleton organization)” value in series [1] (SA 0.5% + Y-27632 5 μM, CRSwNP (FIG. 7A)) is listed as “partially restored lamellipodial extensions”. Besides, in series [2], the “length and velocity of protrusions after SA+Y vs. LB” value is listed as “non-significant”. Further, the “increase of repair rates compared to corresponding SA condition in the absence of Y-27632” value in series [3] (Y-27632 5 μM co-cultured with SA 0.25%) is on record as 1.86 fold. In addition, the “increase of repair rates compared to corresponding SA condition in the absence of Y-27632” value in series [3] (Y-27632 5 μM with SA 0.5%) is recorded as 2.22 fold.
